| SMILES | melting point [°C] |
| --- | --- |
| CC(C)(C)OC(=O)Nc1cc(N2CCC(OCCOC3CCCCO3)CC2)c(-c2ccc(F)cc2)cc1N (racemic) | 56 to 58 |
| Cc1nnc(-c2cc3cccc(OC[C@@H](O)CN4CCC(c5ccc6ccccc6c5)CC4)c3o2)o1 | 140 to 142 |
| CCNC(=O)c1cccc(C(F)(F)F)c1 | 98 to 99 |
| C=CCc1c(O)c(Cl)c(Cl)c2c1CC(C)(c1ccccc1)C2=O (stereo unspecified) | 125 |
| CCOc1cccnc1CSCCN=C(NC#N)SC | 98 to 99 |
| O=C(Nc1ccccc1)O[C@@H]1CN=C(c2cccc(Cl)c2)O[C@H]1c1ccccc1 (racemic) | 126 |
| CS(=O)(=O)C(=C1CN(C(c2ccccc2)c2ccccc2)C1)c1cccc(C#N)c1 | 152 |
| CC(O)(CC(=O)O)c1ccc(Oc2ccccc2)cc1 (stereo unspecified) | 137 to 138 |
| CCOC(=O)C1=C(C)NC(c2ccco2)=C(C(=O)OCC)C1c1cccc([N+](=O)[O-])c1 (stereo unspecified) | 130 to 131 |
| NC(=O)[C@H]1CN(c2ccc(C3=CCOCC3)c(F)c2)C(=O)O1 | 164 to 169 |
| Cn1cnc(-c2ccc(NC(=C3C(=O)Oc4ccccc43)c3ccc(C4(N)CC4)cc3)cc2)c1 | 190 to 191 |
| CCOC(=O)CC(=O)c1cc(F)c(OC)nc1Nc1ccc(F)cc1F | 148 to 149 |
| CS(=O)(=O)C(Cl)(Cl)C(=O)c1ccccc1Cl | 81 to 82 |
| CCOC(=O)C=C(C)C=CC=C(C)C=Cc1c(Cl)cc(OC)c(C)c1Cl | 100 to 101 |
| CC(C)CN1C(=O)c2cnc(-c3ccccc3)nc2Nc2ccccc21 | 203 to 204 |
| COC(=O)c1coc(CN2C(=O)C3(COc4cc5onc(C)c5cc43)c3ccccc32)n1 (stereo unspecified) | 148 to 152 |
| O=S1(=O)NCCOc2ccc(Br)cc21 | 129 |
| CC(=O)Nc1cc(Oc2ccc3c(C(=O)Nc4ccc(CN5CCN(C)CC5)cc4)cccc3c2)ncn1 | 238 to 242 |
| Cc1nc(Cc2ccccc2)c2c(c1O)COC2 | 212 to 214 |
| O=C1CSC(=S)N1C(=O)Nc1ccc2nc(S)sc2c1 | 212 to 217 |
| Clc1ccc(OC2CCC3(CCNCC3)CC2)cc1 | 140 to 142 |
| COC(=O)c1cccc2[nH]c3cc4ccccc4c(OC)c3c12 | 190 to 196 |
| CN1C(=O)CCC(C)(C)c2cc(Nc3ncc(Cl)c(N[C@@H]4CCCC[C@H]4NS(C)(=O)=O)n3)ccc21 | 165 |
| CCOC(=O)C1=C(C)NC(C)=C(C(=O)OCC)C1c1c(C)sc2ccccc12 | 191 to 193 |
| CCCc1c(OCCCCCOc2ccc3c(=O)cc(C(=O)OC)oc3c2CCC)ccc(C(C)=O)c1O | 86 to 87 |
| CCOC(=O)c1sc(NC(=O)c2cc(-c3cccs3)ccc2O)nc1-c1ccccc1 | 213 to 214 |

| SMILES | melting point [°C] |
| --- | --- |
| CCOC(=O)CCNC(=S)Nc1ccc2cn[nH]c2c1 | 145 |
| CSc1ccc2c(c1)N=CC(SC)C2=O (stereo unspecified) | 90 to 92 |
| CC(C)c1nc(-c2ncn3c2COC(=O)c2ccccc2-3)no1 | 143 to 144 |
| CC(=S)NCC1CC(c2ccc(N3CCSCC3)c(F)c2)=NO1 (stereo unspecified) | 219 to 220 |
| CC(Oc1ccc(Oc2cnc3cc(Cl)ccc3n2)cc1)C(=O)Nc1ccc(C(F)(F)F)cc1 (stereo unspecified) | 176 to 178 |
| FC1(F)Oc2ccc(C=Cc3nc(CNc4ccc(CCCCn5ccnn5)cc4)co3)cc2O1 | 102 to 104 |
| CC(C(=O)O)N(C(=O)OC(C)(C)C)c1ccc(N)cc1 (stereo unspecified) | 128 to 133 |
| CCS(=O)CC(=C1NCCCS1)[N+](=O)[O-] (stereo unspecified) | 102 to 104 |
| CC(C)(C)OC(=O)NCc1ccc([N+](=O)[O-])cc1 | 110 to 111 |
| CC(=O)NCc1ccc(-c2ccc([N+](=O)[O-])cc2)o1 | 149 to 151 |
| Cc1cc(-c2ccccc2)nc(-c2cccc([N+](=O)[O-])c2)c1C(=O)NCCN1CCOCC1 | 147 to 148 |
| N#Cc1c(C(F)(F)F)ccc(F)c1N | 100 to 102 |
| OCc1cn(-c2ccc(Cl)c(Cl)c2)cn1 | 146 to 147 |
| CS(=O)(=O)c1ccc(C(=O)O)c(Cl)c1CC#N | 169 to 172 |
| CCS(=O)(=O)CCC(=O)NNC(=O)N1Cc2ccccc2Oc2ccc(C)cc21 | 167 to 169 |
| NS(=O)(=O)c1cc(F)c(C(F)(F)F)cc1NC(=O)c1ccccc1 | 223 |
| CC(Cc1ccccc1)C1CC=C2C3=C(CCC21C)C1(C)CCC(O)C(C)(C)C1CC3 (stereo unspecified) | 179 to 186 |
| COc1ccc(-c2ccnc(-c3ccccc3)c2)cc1F | 84 |
| CCCCCc1cnc(-c2ccc(-c3ccc(Br)cc3)cc2)nc1 | 137 |
| CN(C)Cc1ccc(Cl)cc1C(=O)c1ccccc1F | 91 to 92 |
| CCCn1nc2c(N)nc3ncccc3c2c1CC(C)(C)O | 252 to 255 |
| Cc1cc(CCCCCOc2ccc(-c3ccco3)cc2)on1 | 86 to 88 |
| Cn1cc(C(O)(c2ccc3c(cnn3C(=O)NC3CC3)c2)C(F)(F)F)c2ccccc21 (stereo unspecified) | 116 to 118 |
| CNc1ncc([N+](=O)[O-])c(Cl)n1 | 172 to 173 |
| CC(=O)NC[C@H]1CN(c2ccc(N3CCC(COc4ccon4)CC3)c(F)c2)C(=O)O1 | 163 to 165 |
| CCOC(=O)c1ccc2nc3ccsc3c(=O)n2c1 | 188 to 190 |

| SMILES | melting point [°C] |
| --- | --- |
| CCCc1c2c(c(OC)c3c(=O)cc(C(=O)O)oc13)CCCC2 | 228 to 229 |
| CC(=O)OC1CSC(Oc2ccc(C#N)nc2C)C(OC(C)=O)C1OC(C)=O (stereo unspecified) | 128 to 131 |
| CC1(C)NC(=O)N(CC(CS(=O)(=O)c2ccc(-c3ccc(Cl)cc3)cc2)C(=O)O)C1=O (stereo unspecified) | 242 to 245 |
| NS(=O)(=O)c1ccccc1OCC1CO1 (stereo unspecified) | 132 to 133 |
| NC(Cc1nc2ccccc2nc1CP(=O)(O)O)C(=O)O (stereo unspecified) | 174 |
| CCCCCCCCCCCCCCOc1ccccc1O | 53 to 54 |
| C=CCONC(=O)c1nc(-c2ccc(C#N)cc2)cc(N)c1Cl | 218 to 221 |
| Cc1cc(-c2ccc(S(C)(=O)=O)cc2)n(-c2ccc(F)cc2)c1F | 109 to 110 |
| O=C1CCCCCCCCCCC(=O)O1 | 85 to 89 |
| O=c1c2ccccc2n(Cc2ccccc2)c2cc(Cl)ccc12 | 134 to 136 |
| CC(C)(C)[Si](C)(C)Oc1ccc(CCNc2ncnc3nccnc23)cc1 | 164 to 165 |
| Cc1nc(N=CN(C)C)nc(N(C)C)n1 | 61 |
| OC1CSC(Oc2cccnc2-c2cccs2)C(O)C1O (stereo unspecified) | 130 |
| Cc1cc(S(=O)(=O)Nc2cccc3ccccc23)c2c(C)ccc(C(C)C)cc1-2 | 140 to 142 |
| CCN(c1c(-c2ccccc2)[nH]c(C)c1C(=O)c1ccccc1)S(=O)(=O)c1ccc(C)cc1 | 224 to 225 |
| NS(=O)(=O)c1ccc(-n2nc(C(F)(F)F)cc2-c2ccc(Cl)cc2Cl)cc1 | 153 to 155 |
| CC(C)(C)OC(=O)N(CCN)CCN(CCN)C(=O)OC(C)(C)C | 81 to 82 |
| COc1cc(OC)c(/C=C/S(=O)(=O)Cc2ccc(OC)c(N)c2)c(OC)c1 | 148 to 150 |
| Cc1sc(Cl)cc1C1(c2cccc(-c3cncnc3)c2)N=C(N)N(C)C1=O (stereo unspecified) | 141 to 149 |
| COc1cccc(NS(=O)(=O)c2ccc(N3CCNC3=O)cc2)c1 | 179 to 181 |
| C[C@@H]1COC(=O)N1c1nc(-c2cccc(C#N)c2)cs1 | 187 to 189 |
| CCOCCc1cc(C)c(OCCN2C(C)C(Br)=C(C(N)=O)N2C)c(C)c1 (stereo unspecified) | 112 to 114 |
| COc1ccc(-n2nnnc2C(F)(F)F)cc1C1=CC2(CCCN(C(=O)c3ccccc3)C2)OC1 (stereo unspecified) | 154 to 156 |
| Cc1nc(C)c(Cl)c(NCc2nccc(SCCCCSCCn3c([N+](=O)[O-])cnc3C)c2C)n1 | 142 to 144 |
| CCCC(=O)Oc1cc([N+](=O)[O-])cc([N+](=O)[O-])c1O | 65 to 70 |
| Clc1cccc(-c2nc(-c3ccccn3)no2)c1Cl | 128 to 133 |

| SMILES | melting point [°C] |
| --- | --- |
| OCCN1CCN(Cc2nnc3n2-c2ccc(Cl)cc2C(c2ccccc2)=NC3)CC1 | 113 to 118 |
| COc1c2c(nc3ccccc13)CCN(Cc1ccccc1)CC2 | < 20 |
| O=C(O)C(CCCCc1ccccc1)Oc1cccc2ccccc12 (stereo unspecified) | 91 to 94 |
| O=C(O)COc1cc2c(c(Cl)c1Cl)C(=O)C(c1ccccc1)(C1CCCC1)C2 (stereo unspecified) | 184 to 186 |
| c1ccc(NC2CCCN2Cc2c[nH]c3ccccc23)cc1 (stereo unspecified) | 150 to 151 |
| N#Cc1ccc2[nH]c3ccc(C#N)cc3c2c1 | 360 |
| CC(C)CN(C=Nc1nnnc2c1ncn2C1CC(O)C(CO)O1)CC(C)C (stereo unspecified) | 138 to 140 |
| CNC(=O)ON=CC=NOC(C)=O | 138 |
| CN(C)S(=O)(=O)c1ccc(-c2ccc(N)cc2)cc1 | 178 to 180 |
| c1ccc(N2CCN(Cc3ccc4ccccc4c3)CC2)nc1 | 124 to 126 |
| Nc1ccc(S(=O)c2ccc(Sc3ccc(Cl)c([N+](=O)[O-])c3)cc2)cc1[N+](=O)[O-] (stereo unspecified) | 170 to 172 |
| COC(=O)Nc1nc2cc(SCC3CCCCC3)ccc2[nH]1 | 200 to 204 |
| C=C(C)C(=O)OCCCCCCOc1ccc(C(=O)Oc2ccc3ccc(=O)oc3c2)cc1 | 98 to 104 |
| COc1cc(N)c(Cl)cc1C(=O)NCC1CCN(CCCCCC(=O)c2cn(C)c3ccccc23)CC1 | 125 to 127 |
| CC(=CC(=O)Nc1ccccc1OCCCC(=O)O)c1ccc2c(ccn2C(c2ccccc2)c2ccccc2)c1 | 158 to 162 |
| CCCOCCOc1ccc(-c2ccc3c(c2)C=C(C(=O)OC)CCN3c2ccccc2)cc1 | 117 to 119 |
| c1ccc2oc(SSCCSSc3nc4ccccc4o3)nc2c1 | 124 to 125 |
| C#CCN(c1nc(C)n(-c2ccc(Cl)cc2Cl)n1)c1cc(C)ccc1OC | 116 |
| COC(=O)[C@]1(OS(C)(=O)=O)C[C@H](CC(C)C)[C@@H]2O[C@@H]2C1 | 120 to 121 |
| COc1cccc(N(C)C(=O)c2cnc(-c3cccc(C)c3)s2)c1 | 88 |
| CSCCCCCn1c(CCC(C)=O)nc2c(N)nc3ccccc3c21 | 179 to 181 |
| CCOC(=O)C=Cc1ccncc1 | 64 to 66 |
| O=Cc1c(-c2ccccc2Cl)ccc2c1OCO2 | 84 to 86 |
